Tests used:
[1] = Measurement of maximum absorption wavelength, maximum fluorescence wavelength and fluorescence quantum yield in solvents; assay type: physicochemical
Procedure: Using a luminescent quantum yield measurement apparatus ([…]-01, manufactured by Hamamatsu Photonics K. K.), the maximum absorption wavelength (λabs/nm), the maximum fluorescence wavelength (λflu/nm), and the fluorescence quantum yield (Φf) of the compound in each solvent were measured. […] The fluorescence quantum yield was not less than 0.9 in any of the solvents.

[2] = Measurement of fluorescence lifetime in solvents; assay type: physicochemical
Procedure: The fluorescence lifetime (τf) of the compound in each solvent was measured using a compact fluorescence lifetime measurement apparatus (Quntaurus-Tau, manufactured by Hamamatsu Photonics K. K.).
The compounds of the present invention synthesized in the above Synthesis Examples (FIG. 4; DBC30, DBC30-Bu, and DBC30-Ph) contain an 8-dibutylaminocoumarine skeleton. […] The maximum absorption wavelength was found at 401 to 412 nm, and the maximum fluorescence wavelength was found at 467 to 484 nm, which corresponds to blue fluorescence. […] The fluorescence quantum yield was not less than 0.9 in any of the solvents.

[3] = test system: lipid droplets in HeLa cells; assay: Fluorescence imaging of lipid droplets in cultured cells (luminescence intensity vs Lipi-Blue); assay type: cell-based; conditions: 400 μM oleic acid 48 h, reagent 500 nM, 60 min, excitation 430 nm, compared with Lipi-Blue
Procedure: (§1) Fluorescence intensity imaging and fluorescence lifetime imaging were carried out using a confocal laser microscope (IX-73; manufactured by Olympus Corporation) equipped with a confocal scanner (DCS-120; Becker & Hickl).
Imaging of lipid droplets in cultured cells was studied by a comparative experiment on the performance between DBC30, DBC30-Bu, and DBC30-Ph, and a commercially available blue imaging reagent (Lipi-Blue). The investigated items were the luminescence intensity and the photostability.
Each fluorescent reagent was added to a final concentration of 500 nM to HeLa cells cultured for 48 hours in the presence of 400 μM oleic acid. Culture was then performed for 60 minutes, and the cultured cells were irradiated with an excitation light (DBC30, DBC30-Bu, DBC30-Ph, Lipi-Blue: 430 nm) required for the imaging, followed by observation using a confocal laser microscope.

[4] = test system: lipid droplets in HeLa cells; assay: Co-staining with BODIPY 493/503 for lipid droplet selectivity; assay type: cell-based; conditions: 400 μM oleic acid, 100 nM, 30 min, excitation 430 nm, observation 460-500 nm
Procedure: In order to clarify the lipid droplet selectivities of DBC30, DBC30-Bu, and DBC30-Ph, co-staining experiments were carried out with BODIPY 493/503, which is a commercially available green fluorescent lipid droplet reagent (FIGS. 8 to 10). Each fluorescent reagent was added to a final concentration of 100 nM to HeLa cells cultured for 48 hours in the presence of 400 μM oleic acid. Culture was then performed for 30 minutes, and the cultured cells were irradiated with an excitation light required for the imaging, followed by observation. For DBC30, DBC30-Bu and DBC30-Ph, the excitation wavelength was 430 nm, and the observation wavelength was 460-500 nm. For BODIPY 493/503, the excitation wavelength was 488 nm, and the observation wavelength was 510 to 560 nm.

[5] = Solubility / precipitation in physiological saline; assay type: physicochemical
Procedure: (§2) Fluorescence imaging of lipid droplets in a tissue, and of an adipose tissue, using DBC30, DBC30-Bu, or DBC30-Ph is described below. Since the DBC30 series has remarkably low solubility in water (physiological saline), they cannot be easily directly dissolved. […] Therefore, they cannot be administered to mice. In view of this, the 5 mM stock solution was added (at a volume ratio of 10%) to physiological saline supplemented with 10% bovine serum albumin. […] Regarding administration of MNs-NB, a stock solution in DMSO is directly administered to mice. Since administration of DMSO may cause death of mice from shock, the administration method in the present invention is thought to be a safer method. Here, 100 to 200 μL of 500 μM solution (50 to 100 nmol) was administered to the tail vein of mice under anesthesia, and a fluorescence imaging experiment was carried out. In the present experiment, a microscope capable of acquiring fluorescence lifetime images as well as fluorescence intensity images (FLIM: fluorescence lifetime imaging microscope) was used.

[6] = green fluorescence; cited from earlier work
[7] = test system: lipid droplets in HeLa cells; assay: Photostability in cells under repeated confocal scanning; assay type: cell-based; conditions: 400 μM oleic acid, 100 nM, 500 times of scanning, excitation 430 nm
Procedure: Photostability is an important factor in long-term measurement for, for example, tracing the processes of formation, fusion, and degradation of lipid droplets. Each fluorescent reagent was added to a final concentration of 100 nM (DBC30, C6-OBu, or BODIPY493/503) or 2 μM (Lipi-Blue) to HeLa cells cultured for 48 hours in the presence of 400 μM oleic acid. Culture was then performed for 30 minutes, and the cultured cells were irradiated with an excitation light (DBC30, DBC30-Bu, Lipi-Blue: 430 nm; BODIPY 493/503: 488 nm) required for the imaging, followed by acquisition of imaging images using a confocal laser microscope. The photostability was evaluated by 500 times of scanning in which a set of 50 times of scanning was repeated.

lipid droplets = assay: Multicolor imaging with Mito Tracker Green and Lyso Tracker Red; assay type: cell-based; conditions: co-staining with Mito Tracker Green and Lyso Tracker Red
Source text: Mito Tracker Green (excitation wavelength, 488 nm; observation wavelength, 510 to 560 nm), which is a green fluorescent reagent showing accumulation in mitochondria, and Lyso Tracker Red (excitation wavelength, 570 nm; observation wavelength, >590 nm), which is a red fluorescent reagent showing accumulation in lysosomes, were used.

[8] = test system: lipid droplets in the liver; assay: Fluorescence intensity and lifetime imaging of liver lipid droplets in normal and fatty-liver model mice; assay type: in vivo, mice (BALB/cAJcl); conditions: 50 nmol, tail vein
Procedure: as §1
as §2, with “used. […]” for “used.”

[9] = test system: adipose tissues and lipid droplets; assay: Fluorescence imaging of adipose tissues, skeletal muscle and kidney of a mouse; assay type: in vivo, mouse (BALB/cAJcl); conditions: 50 nmol
Procedure: as §1, §2
In an individual, various adipose tissues and lipid droplets are present. Their imaging was carried out using DBC30. […]

[10] = 5 mM DMSO stock added at 10% to physiological saline supplemented with 10% bovine serum albumin
[11] = 5 mM DMSO stock added at volume ratio of 10% to physiological saline

| SMILES | λabs max ([1]; in Bu2O (dibutyl ether)) [nm] | λflu max ([1]; in Bu2O (dibutyl ether)) [nm] | φl (fluorescence quantum yield) ([1]; in Bu2O (dibutyl ether)) | λabs max ([1]; in MeCN (acetonitrile)) [nm] | λflu max ([1]; in MeCN (acetonitrile)) [nm] | φl (fluorescence quantum yield) ([1]; in MeCN (acetonitrile)) | τf (fluorescence lifetime) ([2]; in Bu2O (dibutyl ether)) [ns] | τf (fluorescence lifetime) ([2]; in MeCN (acetonitrile)) [ns] | fluorescence intensity in cells [3] | lipid droplet selectivity (co-staining with BODIPY 493/503) [4] | precipitation [5, 10] | precipitation [5, 11] | fluorescence wavelength [6] | photostability in cells [7] | use in multicolor imaging (lipid droplets) | imaging of lipid droplets in liver ([8]; fatty-liver model mouse (Week 2)) | imaging of lipid droplets in liver ([8]; mouse fed with a normal diet) | imaging of lipid droplets in kidney [9] | imaging of subcutaneous adipose tissue, abdominal adipose tissue, skeletal muscle and kidney [9] |
| --- | --- | --- | --- | --- | --- | --- | --- | --- | --- | --- | --- | --- | --- | --- | --- | --- | --- | --- | --- |
| CCCCN(CCCC)c1ccc2cc(-c3nc4ccccc4n3-c3ccccc3)c(=O)oc2c1 [DBC30-Ph] | 399 | 467 | 0.92 | 412 | 484 | 0.92 | 2.29 | 2.51 | higher fluorescence intensities than the HeLa cells to which Lipi-Blue was added | found to have lipid droplet selectivity | could be suppressed | precipitation of DBC30, DBC30-Bu, or DBC30-Ph occurs |  |  |  |  |  |  |  |
| CC1=CC(C)=[N+]2C1=C(C)c1c(C)cc(C)n1[B-]2(F)F [BODIPY 493/503] |  |  |  |  |  |  |  |  |  |  |  |  | about 500 nm |  |  |  |  |  |  |
| CCCCN(CCCC)c1ccc2cc(-c3nc4ccccc4n3C)c(=O)oc2c1 [DBC30] | 404 | 468 | 0.93 | 410 | 484 | 0.90 | 2.29 | 2.55 | higher fluorescence intensities than the HeLa cells to which Lipi-Blue was added | found to have lipid droplet selectivity | could be suppressed | precipitation of DBC30, DBC30-Bu, or DBC30-Ph occurs |  | higher photostability compared to the conventional reagents such as Lipi-Blue | can be used for multicolor imaging | large lipid droplets were imaged over the entire liver surface | small lipid droplets could be found in hepatocytes | small lipid droplets distributed in tubular cells could be imaged | Fluorescence derived from DBC30 was found from sites where lipid is accumulated |
